Data: publication PMC5218480 (PLoS ONE, 2017)

Test system: MV-4-11 cells
Assay: Gene expression microarray analysis (Affymetrix PrimeView) and GSEA
Type: cell-based, human
Design: RFU PODN (11730768_x_at) / Fold change /veh PODN (11730768_x_at) / RFU LINC00158 (11744669_a_at) / Fold change /veh LINC00158 (11744669_a_at) / RFU DUSP10 (11751237_a_at) / Fold change /veh DUSP10 (11751237_a_at) / RFU ID3 (11757404_x_at) / Fold change /veh ID3 (11757404_x_at) / RFU PLEKHG5 (11737974_s_at) / Fold change /veh PLEKHG5 (11737974_s_at) / RFU LRRC4B (11730491_at) / Fold change /veh LRRC4B (11730491_at) / RFU GIMAP4 (11747438_a_at) / Fold change /veh GIMAP4 (11747438_a_at) / RFU KRT8 (11758183_x_at) / Fold change /veh KRT8 (11758183_x_at) / RFU CNN1 (11734310_a_at) / Fold change /veh CNN1 (11734310_a_at) / RFU VPS37D (11726825_at) / Fold change /veh VPS37D (11726825_at) / RFU C10orf10 (11716522_x_at) / Fold change /veh C10orf10 (11716522_x_at) / RFU KIR2DL2 /// KIR2DL4 /// KIR2DL5A /// KIR2DL5B /// KIR2DS1 /// KIR2DS2 /// KIR2DS3 /// KIR2DS4 /// KIR3DL3 /// KIR3DL3 /// KIR3DS1 (11738374_at) / Fold change /veh KIR2DL2 /// KIR2DL4 /// KIR2DL5A /// KIR2DL5B /// KIR2DS1 /// KIR2DS2 /// KIR2DS3 /// KIR2DS4 /// KIR3DL3 /// KIR3DL3 /// KIR3DS1 (11738374_at) / RFU C1QL1 (11718748_at) / Fold change /veh C1QL1 (11718748_at) / RFU TMPRSS4 (11747572_a_at) / Fold change /veh TMPRSS4 (11747572_a_at) / RFU HAMP (11756126_x_at) / Fold change /veh HAMP (11756126_x_at) / RFU RNFT2 (11725882_a_at) / Fold change /veh RNFT2 (11725882_a_at) / RFU NR4A2 (11747474_a_at) / Fold change /veh NR4A2 (11747474_a_at) / RFU ABCC12 (11746883_a_at) / Fold change /veh ABCC12 (11746883_a_at) / RFU TMEM136 (11760407_x_at) / Fold change /veh TMEM136 (11760407_x_at) / RFU CLDN22 /// WWC2 (11732394_at) / Fold change /veh CLDN22 /// WWC2 (11732394_at) / RFU HLA-DPB1 (11760878_x_at) / Fold change /veh HLA-DPB1 (11760878_x_at) / RFU SPINT1 (11716480_a_at) / Fold change /veh SPINT1 (11716480_a_at) / RFU GAP43 (11754022_s_at) / Fold change /veh GAP43 (11754022_s_at) / RFU A4GNT (11735810_at) / Fold change /veh A4GNT (11735810_at) / RFU PRB3 (11715151_x_at) / Fold change /veh PRB3 (11715151_x_at) / RFU TUBB4B (11761932_at) / Fold change /veh TUBB4B (11761932_at) / RFU CAPN14 (11732068_a_at) / Fold change /veh CAPN14 (11732068_a_at) / RFU TMCC2 (11721928_a_at) / Fold change /veh TMCC2 (11721928_a_at) / RFU IRGQ (11745062_a_at) / Fold change /veh IRGQ (11745062_a_at) / RFU FAM174B (11720279_a_at) / Fold change /veh FAM174B (11720279_a_at) / RFU TMPRSS4 (11748680_a_at) / Fold change /veh TMPRSS4 (11748680_a_at) / RFU FAM212B (11763350_a_at) / Fold change /veh FAM212B (11763350_a_at) / RFU PLEKHG5 (11743358_a_at) / Fold change /veh PLEKHG5 (11743358_a_at) / RFU ZSCAN30 (11745921_a_at) / Fold change /veh ZSCAN30 (11745921_a_at) / RFU CMKLR1 (11741424_a_at) / Fold change /veh CMKLR1 (11741424_a_at) / RFU LOC101060620 /// MAPK8IP1 (11723275_at) / Fold change /veh LOC101060620 /// MAPK8IP1 (11723275_at) / RFU SPTSSB (11747773_x_at) / Fold change /veh SPTSSB (11747773_x_at) / RFU PRSS12 (11739890_at) / Fold change /veh PRSS12 (11739890_at) / RFU BIN1 (11741810_x_at) / Fold change /veh BIN1 (11741810_x_at) / RFU WNT11 (11732464_a_at) / Fold change /veh WNT11 (11732464_a_at) / RFU C10orf10 (11716521_a_at) / Fold change /veh C10orf10 (11716521_a_at) / RFU C5orf56 (11738089_at) / Fold change /veh C5orf56 (11738089_at) / RFU CYB561 (11721691_x_at) / Fold change /veh CYB561 (11721691_x_at) / RFU ANKRD19P (11752326_a_at) / Fold change /veh ANKRD19P (11752326_a_at) / RFU OR2T12 /// OR2T33 /// OR2T8 (11738714_s_at) / Fold change /veh OR2T12 /// OR2T33 /// OR2T8 (11738714_s_at) / RFU VCAN (11748164_a_at) / Fold change /veh VCAN (11748164_a_at) / RFU JSRP1 (11732532_at) / Fold change /veh JSRP1 (11732532_at) / RFU KRTAP10-11 (11738290_x_at) / Fold change /veh KRTAP10-11 (11738290_x_at) / RFU MYO3A (11730013_a_at) / Fold change /veh MYO3A (11730013_a_at) / RFU EBF3 (11725865_a_at) / Fold change /veh EBF3 (11725865_a_at) / RFU CAMK2N1 (11719241_x_at) / Fold change /veh CAMK2N1 (11719241_x_at) / RFU C5orf56 (11738088_a_at) / Fold change /veh C5orf56 (11738088_a_at) / RFU OLFML3 (11715873_a_at) / Fold change /veh OLFML3 (11715873_a_at) / RFU LOC100653217 /// NTM (11731650_a_at) / Fold change /veh LOC100653217 /// NTM (11731650_a_at) / RFU MAPK11 (11762145_a_at) / Fold change /veh MAPK11 (11762145_a_at) / RFU FIZ1 (11724087_x_at) / Fold change /veh FIZ1 (11724087_x_at) / RFU OASL (11726364_x_at) / Fold change /veh OASL (11726364_x_at) / RFU SOX15 (11748057_x_at) / Fold change /veh SOX15 (11748057_x_at) / RFU CD79A (11719716_a_at) / Fold change /veh CD79A (11719716_a_at) / RFU HIST1H1D (11736915_at) / Fold change /veh HIST1H1D (11736915_at) / RFU CASKIN2 (11723855_a_at) / Fold change /veh CASKIN2 (11723855_a_at) / RFU LOC730098 (11760151_x_at) / Fold change /veh LOC730098 (11760151_x_at) / RFU OR4N2 (11742367_at) / Fold change /veh OR4N2 (11742367_at) / RFU PRRT2 (11749266_a_at) / Fold change /veh PRRT2 (11749266_a_at) / RFU SNX32 (11753110_a_at) / Fold change /veh SNX32 (11753110_a_at) / RFU CDHR5 (11726645_a_at) / Fold change /veh CDHR5 (11726645_a_at) / RFU RCAN1 (11760418_a_at) / Fold change /veh RCAN1 (11760418_a_at) / RFU FAM167A (11723789_a_at) / Fold change /veh FAM167A (11723789_a_at) / RFU FAM26E (11764081_at) / Fold change /veh FAM26E (11764081_at) / RFU ISYNA1 (11749810_s_at) / Fold change /veh ISYNA1 (11749810_s_at) / RFU ACY1 (11761880_at) / Fold change /veh ACY1 (11761880_at) / RFU 11764098_at / Fold change /veh 11764098_at / RFU SAMD14 (11745864_x_at) / Fold change /veh SAMD14 (11745864_x_at) / RFU NPB (11741838_a_at) / Fold change /veh NPB (11741838_a_at) / RFU TMPRSS6 (11731388_a_at) / Fold change /veh TMPRSS6 (11731388_a_at) / RFU KRTAP10-2 (11738614_at) / Fold change /veh KRTAP10-2 (11738614_at) / RFU ARHGAP8 /// PRR5-ARHGAP8 (11727945_x_at) / Fold change /veh ARHGAP8 /// PRR5-ARHGAP8 (11727945_x_at) / RFU KRTAP5-7 /// NADSYN1 (11734609_at) / Fold change /veh KRTAP5-7 /// NADSYN1 (11734609_at) / RFU RASL12 (11751679_a_at) / Fold change /veh RASL12 (11751679_a_at) / RFU CDKN2B (11736163_a_at) / Fold change /veh CDKN2B (11736163_a_at) / RFU PRF1 (11729649_at) / Fold change /veh PRF1 (11729649_at) / RFU, ZNF638 /// ZNF638-IT1 / Fold change vs veh, ZNF638 /// ZNF638-IT1 / RFU, PANK3 / Fold change vs veh, PANK3 / RFU, SH3YL1 / Fold change vs veh, SH3YL1 / RFU, ZEB2 / Fold change vs veh, ZEB2 / RFU, NRIP1 / Fold change vs veh, NRIP1 / RFU, PTTG1IP / Fold change vs veh, PTTG1IP / RFU, CAPN2 / Fold change vs veh, CAPN2 / RFU, MED14 / Fold change vs veh, MED14 / RFU, SNORA58 / Fold change vs veh, SNORA58 / RFU, C1orf63 / Fold change vs veh, C1orf63 / RFU, LRRFIP1 / Fold change vs veh, LRRFIP1 / RFU, NDUFAF7 / Fold change vs veh, NDUFAF7 / RFU, SLC12A2 / Fold change vs veh, SLC12A2 / RFU, IBTK / Fold change vs veh, IBTK / RFU, ESF1 / Fold change vs veh, ESF1 / Fold change vs veh, TMEM50B / RFU, TAOK1 / Fold change vs veh, TAOK1 / RFU, ACBD3 / Fold change vs veh, ACBD3 / RFU, TMA16 / Fold change vs veh, TMA16 / RFU, RWDD3 / Fold change vs veh, RWDD3 / RFU, BCAT1 / Fold change vs veh, BCAT1 / RFU, EDEM3 / Fold change vs veh, EDEM3 / RFU, TMEM33 / Fold change vs veh, TMEM33 / RFU, WDR75 / Fold change vs veh, WDR75 / RFU, AHCTF1 / Fold change vs veh, AHCTF1 / RFU, TFRC / Fold change vs veh, TFRC / RFU, ZDHHC17 / Fold change vs veh, ZDHHC17 / RFU, NOM1 / Fold change vs veh, NOM1 / RFU, ARL8B / Fold change vs veh, ARL8B / RFU, ZBTB11 / Fold change vs veh, ZBTB11 / RFU, TAMM41 / Fold change vs veh, TAMM41 / RFU, KIAA1704 /// LOC100996395 / Fold change vs veh, KIAA1704 /// LOC100996395 / RFU, ING1 / Fold change vs veh, ING1 / RFU, TRMT61B / Fold change vs veh, TRMT61B / RFU, FUBP3 / Fold change vs veh, FUBP3 / RFU, TP53 / Fold change vs veh, TP53 / RFU, TNKS2 / Fold change vs veh, TNKS2 / RFU, ZFP14 / Fold change vs veh, ZFP14 / RFU, ACTR2 / Fold change vs veh, ACTR2 / RFU, PPP3R1 / Fold change vs veh, PPP3R1 / RFU, PIK3R1 / Fold change vs veh, PIK3R1 / RFU, HNRNPA1 / Fold change vs veh, HNRNPA1 / RFU, RNF170 / Fold change vs veh, RNF170 / RFU, ZNF28 / Fold change vs veh, ZNF28 / RFU, RNGTT / Fold change vs veh, RNGTT / RFU, OGT / Fold change vs veh, OGT / RFU, BRD1 / Fold change vs veh, BRD1 / RFU, MARS / Fold change vs veh, MARS / RFU, ZNF655 / Fold change vs veh, ZNF655 / RFU, FAHD1 / Fold change vs veh, FAHD1 / RFU, BDP1 / Fold change vs veh, BDP1 / RFU, LRRCC1 / Fold change vs veh, LRRCC1 / RFU, ARID1A / Fold change vs veh, ARID1A / RFU, ZNF146 / Fold change vs veh, ZNF146 / RFU, ZNF330 / Fold change vs veh, ZNF330 / RFU, GPN3 / Fold change vs veh, GPN3 / RFU, C9orf123 / Fold change vs veh, C9orf123 / RFU, N4BP2L2 / Fold change vs veh, N4BP2L2 / RFU, ARFIP1 / Fold change vs veh, ARFIP1 / RFU, FAM179B / Fold change vs veh, FAM179B / RFU, BCL10 / Fold change vs veh, BCL10 / RFU, UHRF1BP1L / Fold change vs veh, UHRF1BP1L / RFU, BET1 / Fold change vs veh, BET1 / RFU, CNOT2 / Fold change vs veh, CNOT2 / RFU, ZNF268 / Fold change vs veh, ZNF268 / Fold change vs veh, ZNF507 / RFU, DGCR2 / Fold change vs veh, DGCR2 / RFU, WDSUB1 / Fold change vs veh, WDSUB1 / Fold change vs veh, HSP90B1 /// MIR3652 / RFU, ADSS / Fold change vs veh, ADSS / RFU, GK / Fold change vs veh, GK / RFU, ZNF148 / Fold change vs veh, ZNF148 / RFU, TAF9 / Fold change vs veh, TAF9 / RFU, SLC1A5 / Fold change vs veh, SLC1A5 / RFU, SLMO2 / Fold change vs veh, SLMO2 / RFU, ABCC4 / Fold change vs veh, ABCC4 / RFU, LOC101060439 /// RAP1B / Fold change vs veh, LOC101060439 /// RAP1B / RFU, RFX7 / Fold change vs veh, RFX7 / RFU, GTPBP10 / Fold change vs veh, GTPBP10 / RFU, CNEP1R1 / Fold change vs veh, CNEP1R1 / RFU, BIVM-ERCC5 /// ERCC5 / Fold change vs veh, BIVM-ERCC5 /// ERCC5 / RFU, ILF3 / Fold change vs veh, ILF3 / RFU 11762660_at / Fold change /veh 11762660_at / RFU VCAN (11757783_s_at) / Fold change /veh VCAN (11757783_s_at) / RFU DDX43 (11728927_at) / Fold change /veh DDX43 (11728927_at) / RFU KRT8 (11758188_x_at) / Fold change /veh KRT8 (11758188_x_at) / RFU NKD1 (11759106_at) / Fold change /veh NKD1 (11759106_at) / RFU SRD5A1 (11742802_a_at) / Fold change /veh SRD5A1 (11742802_a_at) / RFU TPSAB1 /// TPSB2 (11721975_s_at) / Fold change /veh TPSAB1 /// TPSB2 (11721975_s_at) / RFU GSTM3 (11746129_a_at) / Fold change /veh GSTM3 (11746129_a_at) / RFU IL23R (11737362_x_at) / Fold change /veh IL23R (11737362_x_at) / RFU TMEM51 (11727254_a_at) / Fold change /veh TMEM51 (11727254_a_at) / RFU PIWIL2 (11732686_x_at) / Fold change /veh PIWIL2 (11732686_x_at) / RFU ORM1 (11744905_x_at) / Fold change /veh ORM1 (11744905_x_at) / RFU CCDC152 (11743942_at) / Fold change /veh CCDC152 (11743942_at) / RFU ECM1 (11717891_a_at) / Fold change /veh ECM1 (11717891_a_at) / RFU IL23R (11748794_a_at) / Fold change /veh IL23R (11748794_a_at) / RFU TNFAIP8L3 (11732012_x_at) / Fold change /veh TNFAIP8L3 (11732012_x_at) / RFU MBOAT4 (11741988_at) / Fold change /veh MBOAT4 (11741988_at) / RFU 11764193_at / Fold change /veh 11764193_at / RFU TMEM53 (11763286_at) / Fold change /veh TMEM53 (11763286_at) / RFU MAGEB2 (11727129_at) / Fold change /veh MAGEB2 (11727129_at) / RFU TMEM200A (11744735_a_at) / Fold change /veh TMEM200A (11744735_a_at) / RFU CCDC152 (11751479_a_at) / Fold change /veh CCDC152 (11751479_a_at) / RFU FAM211A (11726209_a_at) / Fold change /veh FAM211A (11726209_a_at) / RFU RGS16 (11746705_a_at) / Fold change /veh RGS16 (11746705_a_at) / RFU VCAN (11755009_s_at) / Fold change /veh VCAN (11755009_s_at) / RFU RHOB (11743442_s_at) / Fold change /veh RHOB (11743442_s_at) / RFU RGS16 (11720943_a_at) / Fold change /veh RGS16 (11720943_a_at) / RFU RGS16 (11720944_at) / Fold change /veh RGS16 (11720944_at) / RFU, VPS4B / Fold change vs veh, VPS4B / RFU, CREB1 / Fold change vs veh, CREB1 / RFU, DNAJC13 / Fold change vs veh, DNAJC13 / RFU, GNAQ / Fold change vs veh, GNAQ / RFU, CDK5R1 / Fold change vs veh, CDK5R1 / RFU, ZRANB3 / Fold change vs veh, ZRANB3 / RFU, CUL4A / Fold change vs veh, CUL4A / RFU, CCNY / Fold change vs veh, CCNY / RFU, UFL1 / Fold change vs veh, UFL1 / RFU, COG3 / Fold change vs veh, COG3 / RFU, DIAPH2 / Fold change vs veh, DIAPH2 / RFU, SKA2 / Fold change vs veh, SKA2 / RFU, AFF3 / Fold change vs veh, AFF3 / RFU, LMF1 / Fold change vs veh, LMF1 / RFU, IPO11 / Fold change vs veh, IPO11 / RFU, DFFB / Fold change vs veh, DFFB / RFU, FOXP1 / Fold change vs veh, FOXP1 / RFU, CARD8 / Fold change vs veh, CARD8 / RFU, STRN3 / Fold change vs veh, STRN3 / RFU, ADK / Fold change vs veh, ADK / RFU, RASSF2 / Fold change vs veh, RASSF2 / RFU, WIPF1 / Fold change vs veh, WIPF1 / RFU, LARP1B / Fold change vs veh, LARP1B / RFU, RASA1 / Fold change vs veh, RASA1 / RFU, RB1 / Fold change vs veh, RB1 / RFU, PPFIA1 / Fold change vs veh, PPFIA1 / RFU, MAT2A / Fold change vs veh, MAT2A / RFU, CCT5 / Fold change vs veh, CCT5 / RFU, WDR92 / Fold change vs veh, WDR92 / RFU, CUX1 / Fold change vs veh, CUX1 / RFU, TTC7A / Fold change vs veh, TTC7A / RFU, TMEM135 / Fold change vs veh, TMEM135 / RFU, DEPTOR / Fold change vs veh, DEPTOR / RFU, CPM / Fold change vs veh, CPM / RFU, DNAJB6 / Fold change vs veh, DNAJB6 / RFU, CACNA2D3 / Fold change vs veh, CACNA2D3 / RFU, DTX4 / Fold change vs veh, DTX4 / RFU, TFCP2 / Fold change vs veh, TFCP2 / RFU, GMCL1 /// GMCL1P1 / Fold change vs veh, GMCL1 /// GMCL1P1 / RFU, AEBP2 / Fold change vs veh, AEBP2 / RFU, SNHG1 /// SNORD22 /// SNORD25 /// SNORD26 /// SNORD27 /// SNORD28 /// SNORD29 /// SNORD31 / Fold change vs veh, SNHG1 /// SNORD22 /// SNORD25 /// SNORD26 /// SNORD27 /// SNORD28 /// SNORD29 /// SNORD31 / Fold change (Aza/veh), C12orf56 (ProbeSet 11735607_a_at) / Fold change (ACY-1035/veh), C12orf56 (ProbeSet 11735607_a_at) / Fold change (Aza/veh), FGFR1OP (ProbeSet 11751329_s_at) / Fold change (ACY-1035/veh), FGFR1OP (ProbeSet 11751329_s_at) / Fold change (Aza/veh), VPS36 (ProbeSet 11739960_a_at) / Fold change (ACY-1035/veh), VPS36 (ProbeSet 11739960_a_at) / RFU SYPL1 (11715823_x_at) / Fold change /veh SYPL1 (11715823_x_at) / RFU IGFBP7 (11715501_s_at) / Fold change /veh IGFBP7 (11715501_s_at) / RFU REEP3 (11722064_at) / Fold change /veh REEP3 (11722064_at) / RFU IGLL1 (11728026_x_at) / Fold change /veh IGLL1 (11728026_x_at): dose or concentration left out as unconfirmed
Settings: MV-4-11 cells, 48 hours

Structure (SMILES): Nc1ccc(-c2cccs2)cc1NC(=O)c1ccc2c(c1)cc(C1CC1)n2CCN1CCOCC1 [ACY-1035]
- Fold change /veh OLFML3 (11715873_a_at): 1.17
